{"source": "PubChem BioAssay AID2060909", "about": "(Molecular Pharmacology Branch, DTP, NCI, 2025);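 further: spheroids exposed to the agents for 7 days before readout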;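 on viability, T/C: luminescence viability as percent of DMSO vehicle control wells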", "tested_on": "362531-283-R-J2-PDC complex spheroid viability", "test": "Anticancer human tumor 362531-283-R-J2-PDC patient-derived colon adenocarcinoma cell line growth inhibition [RAS]", "settings": "for IC50: curve of first compound; for viability, T/C: stronger effect = lower value", "in_short": "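Agents were tested in combination matrices in half-log decrements from a top concentration at or near clinical Cmax (10 microM if undetermined). Targets were multi-cell spheroids of tumour lines plus HUVEC and MSC stromal cells.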", "key": {"[1]": {"settings": "second compound 0.000949 µM, first compound 0.0316 µM"}, "[2]": {"settings": "second compound 0.000949 µM, first compound 0.1 µM"}, "[3]": {"settings": "second compound 0.000949 µM, first compound 0.316 µM"}, "[4]": {"settings": "second compound 0.000949 µM, first compound 1 µM"}, "[5]": {"settings": "second compound 0.003 µM, first compound 0.0316 µM"}, "[6]": {"settings": "second compound 0.003 µM, first compound 0.1 µM"}, "[7]": {"settings": "second compound 0.003 µM, first compound 0.316 µM"}, "[8]": {"settings": "second compound 0.003 µM, first compound 1 µM"}, "[9]": {"settings": "second compound 0.00949 µM, first compound 0.0316 µM"}, "[10]": {"settings": "second compound 0.00949 µM, first compound 0.1 µM"}, "[11]": {"settings": "second compound 0.00949 µM, first compound 0.316 µM"}, "[12]": {"settings": "second compound 0.00949 µM, first compound 1 µM"}, "[13]": {"settings": "second compound 0.03 µM, first compound 0.0316 µM"}, "[14]": {"settings": "second compound 0.03 µM, first compound 0.1 µM"}, "[15]": {"settings": "second compound 0.03 µM, first compound 0.316 µM"}, "[16]": {"settings": "second compound 0.03 µM, first compound 1 µM"}, "[17]": {"settings": "second compound 0.0949 µM, first compound 0.0316 µM"}, "[18]": {"settings": "second compound 0.0949 µM, first compound 0.1 µM"}, "[19]": {"settings": "second compound 0.0949 µM, first compound 0.316 µM"}, "[20]": {"settings": "second compound 0.0949 µM, first compound 1 µM"}, "[21]": {"settings": "second compound 0.3 µM, first compound 0.0316 µM"}, "[22]": {"settings": "second compound 0.3 µM, first compound 0.1 µM"}, "[23]": {"settings": "second compound 0.3 µM, first compound 0.316 µM"}, "[24]": {"settings": "second compound 0.3 µM, first compound 1 µM"}}}
{"smiles": "CC(=O)OC12COC1CC(O)C1(C)C(=O)C(O)C3=C(C)C(OC(=O)C(O)C(NC(=O)OC(C)(C)C)c4ccccc4)CC(O)(C(OC(=O)c4ccccc4)C21)C3(C)C", "note": "(centres undefined) + CCn1c(-c2cc(N3CCN(C)CC3)cnc2C(C)OC)c2c3cc(ccc31)-c1csc(n1)CC(NC(=O)C1CC1C)C(=O)N1CCCC(N1)C(=O)OCC(C)(C)C2", "values": [{"measurement": "IC50", "setting": "second compound 0.000949 µM", "result": 214, "unit": "nM"}, {"measurement": "IC50", "setting": "second compound 0.003 µM", "result": 215, "unit": "nM"}, {"measurement": "IC50", "setting": "second compound 0.00949 µM", "result": 192, "unit": "nM"}, {"measurement": "IC50", "setting": "second compound 0.03 µM", "result": 164, "unit": "nM"}, {"measurement": "IC50", "setting": "second compound 0.0949 µM", "result": 137, "unit": "nM"}, {"measurement": "IC50", "setting": "second compound 0.3 µM", "result": "< 31.6", "unit": "nM"}, {"measurement": "viability, T/C", "setting": "[1]", "result": 92.9, "unit": "%"}, {"measurement": "viability, T/C", "setting": "[2]", "result": 95.2, "unit": "%"}, {"measurement": "viability, T/C", "setting": "[3]", "result": 27.5, "unit": "%"}, {"measurement": "viability, T/C", "setting": "[4]", "result": 16.7, "unit": "%"}, {"measurement": "viability, T/C", "setting": "second compound 0.000949 µM, first compound 3.16 µM", "result": 18.1, "unit": "%"}, {"measurement": "viability, T/C", "setting": "second compound 0.000949 µM, first compound 10 µM", "result": 31.9, "unit": "%"}, {"measurement": "viability, T/C", "setting": "[5]", "result": 103, "unit": "%"}, {"measurement": "viability, T/C", "setting": "[6]", "result": 92.7, "unit": "%"}, {"measurement": "viability, T/C", "setting": "[7]", "result": 28.7, "unit": "%"}, {"measurement": "viability, T/C", "setting": "[8]", "result": 13.6, "unit": "%"}, {"measurement": "viability, T/C", "setting": "second compound 0.003 µM, first compound 3.16 µM", "result": 19.1, "unit": "%"}, {"measurement": "viability, T/C", "setting": "second compound 0.003 µM, first compound 10 µM", "result": 19.9, "unit": "%"}, {"measurement": "viability, T/C", "setting": "[9]", "result": 94.2, "unit": "%"}, {"measurement": "viability, T/C", "setting": "[10]", "result": 91, "unit": "%"}, {"measurement": "viability, T/C", "setting": "[11]", "result": 18.8, "unit": "%"}, {"measurement": "viability, T/C", "setting": "[12]", "result": 12.9, "unit": "%"}, {"measurement": "viability, T/C", "setting": "second compound 0.00949 µM, first compound 3.16 µM", "result": 9.58, "unit": "%"}, {"measurement": "viability, T/C", "setting": "second compound 0.00949 µM, first compound 10 µM", "result": 15.8, "unit": "%"}, {"measurement": "viability, T/C", "setting": "[13]", "result": 76.8, "unit": "%"}, {"measurement": "viability, T/C", "setting": "[14]", "result": 77.5, "unit": "%"}, {"measurement": "viability, T/C", "setting": "[15]", "result": 14.2, "unit": "%"}, {"measurement": "viability, T/C", "setting": "[16]", "result": 7.82, "unit": "%"}, {"measurement": "viability, T/C", "setting": "second compound 0.03 µM, first compound 3.16 µM", "result": 8.32, "unit": "%"}, {"measurement": "viability, T/C", "setting": "second compound 0.03 µM, first compound 10 µM", "result": 11.6, "unit": "%"}, {"measurement": "viability, T/C", "setting": "[17]", "result": 68.7, "unit": "%"}, {"measurement": "viability, T/C", "setting": "[18]", "result": 65.5, "unit": "%"}, {"measurement": "viability, T/C", "setting": "[19]", "result": 9.07, "unit": "%"}, {"measurement": "viability, T/C", "setting": "[20]", "result": 7.86, "unit": "%"}, {"measurement": "viability, T/C", "setting": "second compound 0.0949 µM, first compound 3.16 µM", "result": 8.53, "unit": "%"}, {"measurement": "viability, T/C", "setting": "second compound 0.0949 µM, first compound 10 µM", "result": 7.69, "unit": "%"}, {"measurement": "viability, T/C", "setting": "[21]", "result": 43.2, "unit": "%"}, {"measurement": "viability, T/C", "setting": "[22]", "result": 20.1, "unit": "%"}, {"measurement": "viability, T/C", "setting": "[23]", "result": 7.36, "unit": "%"}, {"measurement": "viability, T/C", "setting": "[24]", "result": 4.87, "unit": "%"}, {"measurement": "viability, T/C", "setting": "second compound 0.3 µM, first compound 3.16 µM", "result": 5.33, "unit": "%"}, {"measurement": "viability, T/C", "setting": "second compound 0.3 µM, first compound 10 µM", "result": 4.75, "unit": "%"}]}
{"smiles": "Nc1ccn(C2OC(CO)C(O)C2(F)F)c(=O)n1", "note": "(centres undefined) + CCn1c(-c2cc(N3CCN(C)CC3)cnc2C(C)OC)c2c3cc(ccc31)-c1csc(n1)CC(NC(=O)C1CC1C)C(=O)N1CCCC(N1)C(=O)OCC(C)(C)C2", "values": [{"measurement": "IC50", "setting": "second compound 0.000949 µM", "result": 181, "unit": "nM"}, {"measurement": "IC50", "setting": "second compound 0.003 µM", "result": 177, "unit": "nM"}, {"measurement": "IC50", "setting": "second compound 0.00949 µM", "result": 128, "unit": "nM"}, {"measurement": "IC50", "setting": "second compound 0.03 µM", "result": 141, "unit": "nM"}, {"measurement": "IC50", "setting": "second compound 0.0949 µM", "result": 80, "unit": "nM"}, {"measurement": "IC50", "setting": "second compound 0.3 µM", "result": "< 3.16", "unit": "nM"}, {"measurement": "viability, T/C", "setting": "second compound 0.000949 µM, first compound 0.00316 µM", "result": 98.9, "unit": "%"}, {"measurement": "viability, T/C", "setting": "second compound 0.000949 µM, first compound 0.01 µM", "result": 108, "unit": "%"}, {"measurement": "viability, T/C", "setting": "[1]", "result": 80.5, "unit": "%"}, {"measurement": "viability, T/C", "setting": "[2]", "result": 75.7, "unit": "%"}, {"measurement": "viability, T/C", "setting": "[3]", "result": 23.7, "unit": "%"}, {"measurement": "viability, T/C", "setting": "[4]", "result": 27.7, "unit": "%"}, {"measurement": "viability, T/C", "setting": "second compound 0.003 µM, first compound 0.00316 µM", "result": 110, "unit": "%"}, {"measurement": "viability, T/C", "setting": "second compound 0.003 µM, first compound 0.01 µM", "result": 91, "unit": "%"}, {"measurement": "viability, T/C", "setting": "[5]", "result": 82, "unit": "%"}, {"measurement": "viability, T/C", "setting": "[6]", "result": 75.7, "unit": "%"}, {"measurement": "viability, T/C", "setting": "[7]", "result": 18.9, "unit": "%"}, {"measurement": "viability, T/C", "setting": "[8]", "result": 29.3, "unit": "%"}, {"measurement": "viability, T/C", "setting": "second compound 0.00949 µM, first compound 0.00316 µM", "result": 95, "unit": "%"}, {"measurement": "viability, T/C", "setting": "second compound 0.00949 µM, first compound 0.01 µM", "result": 101, "unit": "%"}, {"measurement": "viability, T/C", "setting": "[9]", "result": 66.7, "unit": "%"}, {"measurement": "viability, T/C", "setting": "[10]", "result": 69.5, "unit": "%"}, {"measurement": "viability, T/C", "setting": "[11]", "result": 17.6, "unit": "%"}, {"measurement": "viability, T/C", "setting": "[12]", "result": 24.9, "unit": "%"}, {"measurement": "viability, T/C", "setting": "second compound 0.03 µM, first compound 0.00316 µM", "result": 97.9, "unit": "%"}, {"measurement": "viability, T/C", "setting": "second compound 0.03 µM, first compound 0.01 µM", "result": 86.8, "unit": "%"}, {"measurement": "viability, T/C", "setting": "[13]", "result": 75.5, "unit": "%"}, {"measurement": "viability, T/C", "setting": "[14]", "result": 63.6, "unit": "%"}, {"measurement": "viability, T/C", "setting": "[15]", "result": 15.3, "unit": "%"}, {"measurement": "viability, T/C", "setting": "[16]", "result": 21.6, "unit": "%"}, {"measurement": "viability, T/C", "setting": "second compound 0.0949 µM, first compound 0.00316 µM", "result": 80.2, "unit": "%"}, {"measurement": "viability, T/C", "setting": "second compound 0.0949 µM, first compound 0.01 µM", "result": 80, "unit": "%"}, {"measurement": "viability, T/C", "setting": "[17]", "result": 64.4, "unit": "%"}, {"measurement": "viability, T/C", "setting": "[18]", "result": 49.9, "unit": "%"}, {"measurement": "viability, T/C", "setting": "[19]", "result": 10.8, "unit": "%"}, {"measurement": "viability, T/C", "setting": "[20]", "result": 17.4, "unit": "%"}, {"measurement": "viability, T/C", "setting": "second compound 0.3 µM, first compound 0.00316 µM", "result": 40.9, "unit": "%"}, {"measurement": "viability, T/C", "setting": "second compound 0.3 µM, first compound 0.01 µM", "result": 46.2, "unit": "%"}, {"measurement": "viability, T/C", "setting": "[21]", "result": 28.5, "unit": "%"}, {"measurement": "viability, T/C", "setting": "[22]", "result": 25.1, "unit": "%"}, {"measurement": "viability, T/C", "setting": "[23]", "result": 14.6, "unit": "%"}, {"measurement": "viability, T/C", "setting": "[24]", "result": 10.3, "unit": "%"}]}
